Laboratory results: ChEMBL document CHEMBL4251633, “Design, synthesis, biological evaluation and cocrystal structures with tubulin of chiral β-lactam bridged combretastatin A-4 analogues as potent antitumor agents” (Eur J Med Chem, 2018)
Activity calls are given as the source filed them. No cut-off for these calls is given here.

Assays:
Mus musculus [1] = assay: Toxicity in Balb/c nude mouse xenografted with human A2780 cells assessed as abnormality in spleen at 7.5 mg/kg, ip once in every 2 days measured after 14 days by H and E staining based assay; assay type: organism-based; details: in vivo, 336 h
HeLa [2] = assay: Induction of apoptosis in human HeLa cells assessed as live cells at 200 nM after 48 hrs by Annexin V-FITC/propidium iodide staining based flow cytometry (reference value: 96.5%); assay type: functional
HeLa [3] = assay: Induction of histone-H3 phosphorylation in human HeLa cells by Western blot analysis; assay type: cell-based
Mus musculus [4] = assay: Toxicity in Balb/c nude mouse xenografted with human A2780 cells assessed as abnormality in liver at 7.5 mg/kg, ip once in every 2 days measured after 14 days by H and E staining based assay; assay type: organism-based; details: in vivo, 336 h
HeLa [5] = assay: Induction of apoptosis in human HeLa cells assessed as necrotic cells at 100 nM after 48 hrs by Annexin V-FITC/propidium iodide staining based flow cytometry (reference value: 0.9%); assay type: functional
HeLa [6] = assay: Inhibition of alpha-tubulin polymerization in human HeLa cells assessed as increase in ratio of supernatant faction to pellet fraction at 500 nM after 6 hrs by Western blot analysis; assay type: cell-based
HeLa [7] = assay: Induction of apoptosis in human HeLa cells assessed as live cells at 50 nM after 48 hrs by Annexin V-FITC/propidium iodide staining based flow cytometry (reference value: 96.5%); assay type: functional
Mus musculus [8] = assay: Anti-vascular activity in Balb/c nude mouse assessed as inhibition of VEGF-induced capillary blood vessel formation by measuring reduction in hemoglobin level using sc injected matrigel plug supplemented with 100 nM test compound mixed with VEGF and measured after 1 week by matrigel plug assay; assay type: functional, organism-based
HeLa [9] = assay: Induction of apoptosis in human HeLa cells assessed as late apoptotic cells at 200 nM after 48 hrs by Annexin V-FITC/propidium iodide staining based flow cytometry (reference value: 2%); assay type: functional
HeLa [10] = assay: Induction of apoptosis in human HeLa cells assessed as live cells at 100 nM after 48 hrs by Annexin V-FITC/propidium iodide staining based flow cytometry (reference value: 96.5%); assay type: functional
HeLa [11] = assay: Induction of apoptosis in human HeLa cells assessed as early apoptotic cells at 50 nM after 48 hrs by Annexin V-FITC/propidium iodide staining based flow cytometry (reference value: 0.7%); assay type: functional
Homo sapiens [12] = species: Homo sapiens; assay: Disruption of microtubule structure in human SKOV3 cells assessed as decrease in density at 100 nM after 24 hrs by DAPI staining based immunofluorescence assay; assay type: cell-based
HeLa [13] = assay: Cell cycle arrest in human HeLa cells assessed as accumulation at G2/M-phase at 50 to 100 nM after 24 hrs by propidium iodide staining based flow cytometry; assay type: functional
Sus scrofa = species: Sus scrofa; assay: Inhibition of pig brain tubulin polymerization measured every 1 min for 20 mins by spectrophotometric method
HeLa [14] = assay: Upregulation of cleaved PARP1 protein expression in human HeLa cells after 48 hrs by Western blot analysis; assay type: functional, cell-based
HeLa [15] = assay: Upregulation of p53 protein expression in human HeLa cells after 48 hrs by Western blot analysis; assay type: functional, cell-based
HeLa [16] = assay: Induction of apoptosis in human HeLa cells assessed as necrotic cells at 50 nM after 48 hrs by Annexin V-FITC/propidium iodide staining based flow cytometry (reference value: 0.9%); assay type: functional
HeLa [17] = assay: Upregulation of Cyclin-B1 protein expression in human HeLa cells at 50 to 200 nM by Western blot analysis; assay type: functional, cell-based
Mus musculus [18] = assay: Acute toxicity in ICR mouse assessed as death at 25 to 95 mg/kg, ip measured after 2 days; assay type: organism-based; details: in vivo, 48 h
A2780 [19] = assay: Antitumor activity against human A2780 cells xenografted in Balb/c nude mouse assessed as isolated tumor weight inhibition at 7.5 mg/kg, ip once in every 2 days measured after 14 days; assay type: functional, organism-based
HeLa [20] = assay: Induction of apoptosis in human HeLa cells assessed as early apoptotic cells at 200 nM after 48 hrs by Annexin V-FITC/propidium iodide staining based flow cytometry (reference value: 0.7%); assay type: functional
[21] = Acute toxicity in ICR mouse assessed as survival rate at 35 mg/kg, ip measured on day 14 (reference value: 100%); assay type: organism-based; details: in vivo
HeLa [22] = assay: Induction of apoptosis in human HeLa cells assessed as late apoptotic cells at 50 nM after 48 hrs by Annexin V-FITC/propidium iodide staining based flow cytometry (reference value: 2%); assay type: functional
[23] = Growth inhibition of HOSEC at 1 uM after 48 hrs by MTT assay relative to control; details: human, HOSEC cells; read-out: GI
HUVEC = assay: Antiangiogenic activity against HUVEC assessed as disruption of capillary-like tube formation at 25 to 50 nM after 12 hrs by inverted microscopic method; assay type: functional, cell-based; details: Homo sapiens
[24] = Acute toxicity in ICR mouse assessed as survival rate at 70 mg/kg, ip measured on day 14 (reference value: 100%); assay type: organism-based; details: in vivo
MDA-MB-231 = assay: Anticlonogenic activity against human MDA-MB-231 cells incubated for 48 hrs followed by replacement with fresh medium measured after 7 to 10 days by gentian violet staining based assay; assay type: functional, cell-based
Mus musculus [25] = assay: Acute toxicity in ICR mouse assessed as death at 25 mg/kg, ip measured after 3 days; assay type: organism-based; details: in vivo, 72 h
HeLa [26] = assay: Induction of apoptosis in human HeLa cells assessed as late apoptotic cells at 100 nM after 48 hrs by Annexin V-FITC/propidium iodide staining based flow cytometry (reference value: 2%); assay type: functional
Mus musculus [27] = assay: Anti-vascular activity in Balb/c nude mouse assessed as inhibition of VEGF-induced capillary blood vessel formation using sc injected matrigel plug supplemented with 100 nM test compound mixed with VEGF and measured after 1 week by matrigel plug assay; assay type: functional, organism-based
Mus musculus [28] = assay: Acute toxicity in ICR mouse assessed as death at 25 to 95 mg/kg, ip measured after 1 day; assay type: organism-based; details: in vivo, 24 h
Mus musculus [29] = assay: Acute toxicity in ICR mouse assessed as death at 25 to 50 mg/kg, ip measured after 5 to 14 days; assay type: organism-based; details: in vivo
Mus musculus [30] = assay: Toxicity in Balb/c nude mouse xenografted with human A2780 cells assessed as body weight loss at 7.5 mg/kg, ip once in every 2 days measured up to 14 days; assay type: organism-based; details: in vivo
Mus musculus [31] = assay: Toxicity in Balb/c nude mouse xenografted with human A2780 cells assessed as abnormality in kidney at 7.5 mg/kg, ip once in every 2 days measured after 14 days by H and E staining based assay; assay type: organism-based; details: in vivo, 336 h
[32] = Acute toxicity in ICR mouse assessed as survival rate at 50 mg/kg, ip measured on day 14 (reference value: 100%); assay type: organism-based; details: in vivo
A2780 [33] = assay: Antitumor activity against human A2780 cells xenografted in Balb/c nude mouse assessed as tumor volume inhibition at 7.5 mg/kg, ip once in every 2 days measured up to 14 days relative to control; assay type: functional
Mus musculus [34] = assay: Acute toxicity in ICR mouse assessed as death at 25 to 50 mg/kg, ip measured after 4 days; assay type: organism-based; details: in vivo, 96 h
HeLa [35] = assay: Induction of apoptosis in human HeLa cells assessed as necrotic cells at 200 nM after 48 hrs by Annexin V-FITC/propidium iodide staining based flow cytometry (reference value: 0.9%); assay type: functional
HeLa [36] = assay: Induction of apoptosis in human HeLa cells assessed as early apoptotic cells at 100 nM after 48 hrs by Annexin V-FITC/propidium iodide staining based flow cytometry (reference value: 0.7%); assay type: functional
A2780 [37] = assay: Antitumor activity against human A2780 cells xenografted in Balb/c nude mouse assessed as tumor weight inhibition at 7.5 mg/kg, ip once in every 2 days measured up to 14 days; assay type: functional, organism-based
[38] = biological target: Mitotic checkpoint serine/threonine-protein kinase BUB1 beta (Homo sapiens) (UniProt O60566); assay: Induction of BubR1 hyperphosphorylation in human HeLa cells by Western blot analysis; assay type: cell-based
Sequence of Mitotic checkpoint serine/threonine-protein kinase BUB1 beta (Homo sapiens) (O60566 whole entry): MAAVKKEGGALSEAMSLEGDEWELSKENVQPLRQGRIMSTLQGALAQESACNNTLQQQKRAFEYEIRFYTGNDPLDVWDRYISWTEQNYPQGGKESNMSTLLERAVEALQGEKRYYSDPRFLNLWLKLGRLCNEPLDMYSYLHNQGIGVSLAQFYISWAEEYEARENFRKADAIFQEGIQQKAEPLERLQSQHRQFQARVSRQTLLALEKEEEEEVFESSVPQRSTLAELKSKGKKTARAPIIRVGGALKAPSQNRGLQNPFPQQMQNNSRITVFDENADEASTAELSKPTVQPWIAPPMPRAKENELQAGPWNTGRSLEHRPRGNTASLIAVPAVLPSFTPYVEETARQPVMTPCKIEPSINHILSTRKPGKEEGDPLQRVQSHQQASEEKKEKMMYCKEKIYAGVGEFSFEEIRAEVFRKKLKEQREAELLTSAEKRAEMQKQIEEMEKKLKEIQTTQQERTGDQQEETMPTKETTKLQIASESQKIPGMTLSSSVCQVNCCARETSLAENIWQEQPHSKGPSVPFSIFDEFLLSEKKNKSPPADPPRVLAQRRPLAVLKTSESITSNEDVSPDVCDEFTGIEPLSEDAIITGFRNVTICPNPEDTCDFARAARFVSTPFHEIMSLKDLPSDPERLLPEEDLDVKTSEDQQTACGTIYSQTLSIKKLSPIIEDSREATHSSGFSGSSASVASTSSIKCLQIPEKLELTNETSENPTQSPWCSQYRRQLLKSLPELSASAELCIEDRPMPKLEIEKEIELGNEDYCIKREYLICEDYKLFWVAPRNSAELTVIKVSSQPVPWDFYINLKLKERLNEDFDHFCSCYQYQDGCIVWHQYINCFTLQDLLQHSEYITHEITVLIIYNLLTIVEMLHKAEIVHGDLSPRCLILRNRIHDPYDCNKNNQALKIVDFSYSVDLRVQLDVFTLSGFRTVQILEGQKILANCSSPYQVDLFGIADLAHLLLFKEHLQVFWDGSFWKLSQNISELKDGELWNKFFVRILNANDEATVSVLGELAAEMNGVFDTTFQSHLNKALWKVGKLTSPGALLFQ

[39] = Acute toxicity in ICR mouse assessed as survival rate at 95 mg/kg, ip measured on day 14 (reference value: 100%); assay type: organism-based; details: in vivo
A2780 [40] = assay: Antitumor activity against human A2780 cells xenografted in Balb/c nude mouse assessed as induction of tumor necrosis at 7.5 mg/kg, ip once in every 2 days measured after 14 days by H and E staining based assay; assay type: functional, organism-based
HeLa [41] = assay: Upregulation of Bax protein expression in human HeLa cells after 48 hrs by Western blot analysis; assay type: functional, cell-based
[42] = Acute toxicity in ICR mouse assessed as survival rate at 25 mg/kg, ip measured on day 14 (reference value: 100%); assay type: organism-based; details: in vivo
HeLa [43] = assay: Induction of apoptosis in human HeLa cells after 48 hrs by Annexin V-FITC/propidium iodide staining based flow cytometry; assay type: functional, cell-based
HeLa [44] = assay: Cell cycle arrest in human HeLa cells assessed as accumulation at G2/M-phase at 50 nM after 24 hrs by propidium iodide staining based flow cytometry; assay type: functional
Homo sapiens [45] = species: Homo sapiens; assay: Disruption of microtubule structure in human SKOV3 cells assessed as decrease in density at 50 nM after 24 hrs by DAPI staining based immunofluorescence assay; assay type: cell-based

COc1ccc([C@H]2[C@H](CO)C(=O)N2c2cc(OC)c(OC)c(OC)c2)cc1O
Activity (Mus musculus [1]): Non-Toxic
Activity (HeLa [2]): 22.6%
Activity (HeLa [3]): Dose-dependent effect
Activity (Mus musculus [4]): Non-Toxic
Activity (HeLa [5]): 6.1%
tubulin polymerization inhibition (active/inactive) (HeLa [6]): Active
Activity (HeLa [7]): 48.2%
inhibition (Mus musculus [8]): Active
Activity (HeLa [9]): 34.6%
Activity (HeLa [10]): 36.3%
Activity (HeLa [11]): 18.6%
Activity (Homo sapiens [12]): Active
Activity (HeLa [13]): Active
inhibition (Sus scrofa): Dose-dependent effect
Activity (HeLa [14]): Dose-dependent effect
Activity (HeLa [15]): Dose-dependent effect
Activity (HeLa [16]): 13%
Activity (HeLa [17]): Active
Activity (Mus musculus [18]): Non-Toxic
inhibition (A2780 [19]): Active
Activity (HeLa [20]): 36.1%
survival at 14 day [21]: 90%
Activity (HeLa [22]): 20.1%
inhibition at 48 h, 1 µM [23]: < 50%
Activity (HUVEC): Active
survival at 14 day [24]: 30%
Activity (MDA-MB-231): Dose-dependent effect
Activity (Mus musculus [25]): Non-Toxic
Activity (HeLa [26]): 24.6%
inhibition (Mus musculus [27]): Active
Activity (Mus musculus [28]): Non-Toxic
Activity (Mus musculus [29]): Non-Toxic
Activity (Mus musculus [30]): Non-Toxic
Activity (Mus musculus [31]): Non-Toxic
survival at 14 day [32]: 90%
inhibition in vivo at 7.5 mg/kg (A2780 [33]): 78.9%
Activity (Mus musculus [34]): Non-Toxic
Activity (HeLa [35]): 6.7%
Activity (HeLa [36]): 32.9%
inhibition (A2780 [37]): Active
Activity [38]: Dose-dependent effect
survival at 14 day [39]: 20%
Activity (A2780 [40]): Active
Activity (HeLa [41]): Dose-dependent effect
survival at 14 day [42]: 100%
Activity (HeLa [43]): Dose-dependent effect

COc1ccc(/C=C\c2cc(OC)c(OC)c(OC)c2)cc1O [COMBRETASTATIN A4]
Activity (HeLa [5]): 7.5%
tubulin polymerization inhibition (active/inactive) (HeLa [6]): Active
Activity (HeLa [10]): 30%
Activity (HeLa [26]): 29.2%
Activity (HeLa [44]): 100%
Activity (HeLa [36]): 33.3%
Activity (Homo sapiens [45]): Active
